These results are taken from ChEMBL document CHEMBL1201862, “PubChem BioAssay data set” (2004).

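Test compounds were applied to cells in 96-well plates for 48 hours at 5 doses. Abbreviation: GI50, concentration required for 50% inhibition of growth.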 Active and inactive are the calls of the source. Rule as the data show it: active = GI50 up to about 1.1 µM and inactive = higher.

Among the test systems are CAKI-1; SF-539; RPMI-8226; SN12C; SK-MEL-28; M14; UO-31; LOX IMVI; HCC 2998; HT-29; Hs-578T; HOP-92; Malme-3M; MCF7; COLO 205; SK-MEL-5; SK-OV-3; T47D; OVCAR-5; K562.
What all share (experiment): NCI anticancer screen, dose series, 48 h

Consider `C(CCc1nnc2c(n1)CCCC2)Cc1nnc2c(n1)CCCC2`, for which the GI50 in the experiment on CAKI-1, with SF-539, in the experiment on RPMI-8226, in the experiment on SN12C, in the experiment on SK-MEL-28 and with M14 was > 100 µM (inactive) in each case. In addition, the GI50 in the experiment with UO-31, with LOX IMVI, in the experiment with HCC 2998, with HT-29, with Hs-578T and in the experiment with HOP-92 was > 100 µM (inactive) throughout. Besides, the GI50 in the experiment on Malme-3M, in the experiment with MCF7, with COLO 205, in the experiment on SK-MEL-5, in the experiment with SK-OV-3 and in the experiment on T47D was > 100 µM (inactive) each time. Also, the GI50 in the experiment with OVCAR-5 and in the experiment on K562 was > 100 µM (inactive) in each case.
On to `Cc1nnc2n1N=C(c1cc(F)c(Cl)cc1Cl)/C(=C/c1ccc(Cl)cc1)S2`, for which the GI50 in the experiment on CAKI-1 is 10.1 µM (inactive); in the experiment on SF-539, 25.9 µM (inactive); with RPMI-8226, 15.5 µM (inactive); with SN12C, 14.9 µM (inactive); with SK-MEL-28, 38.8 µM (inactive); in the experiment on M14 it was 17.9 µM (inactive). Further, the GI50 with UO-31 is 11.3 µM (inactive); with LOX IMVI, 9.33 µM (inactive); with HCC 2998, 13.4 µM (inactive); with HT-29 it was 11.7 µM (inactive); with Hs-578T, 43.1 µM (inactive); with HOP-92 it was 19.6 µM (inactive). Also, the GI50 is 20.6 µM (inactive) in the experiment on Malme-3M; 14.4 µM (inactive) in the experiment with MCF7; 33.4 µM (inactive) in the experiment on COLO 205; 19.2 µM (inactive) in the experiment on SK-MEL-5; 43.4 µM (inactive) with SK-OV-3; 34 µM (inactive) in the experiment on T47D. Also, the GI50 in the experiment with OVCAR-5 was 6.46 µM (inactive); in the experiment on K562, 17.5 µM (inactive).
For the molecule `CC1(C)OC(C(=O)Nc2cc3c4ccccc4ccc3c3ccccc23)C(C(=O)N2CCCCC2)O1` (stereo not given), the GI50 with CAKI-1 is 0.493 µM (active); in the experiment with SF-539 it was 0.587 µM (active); in the experiment with RPMI-8226, 0.592 µM (active); in the experiment with SN12C, 9.18 µM (inactive); in the experiment with SK-MEL-28, > 39.4 µM (inactive); in the experiment with M14, 3.56 µM (inactive). The GI50 is 2.17 µM (inactive) with UO-31; 0.344 µM (active) in the experiment on LOX IMVI; > 74.1 µM (inactive) with HCC 2998; 0.74 µM (active) with HT-29; 3.72 µM (inactive) in the experiment on Hs-578T; 31.6 µM (inactive) in the experiment on HOP-92. Also, the GI50 was > 100 µM (inactive) in the experiment on Malme-3M; 1.16 µM (inactive) in the experiment with MCF7; 0.966 µM (active) with COLO 205; 1.98 µM (inactive) with SK-MEL-5; 20.6 µM (inactive) with SK-OV-3; 6.62 µM (inactive) in the experiment with T47D. Besides, the GI50 was > 100 µM (inactive) with OVCAR-5 and 0.619 µM (active) in the experiment on K562.
As to `COC1=CC(=O)c2nc3ccccc3c3ccnc1c23`, the GI50 is 14.3 µM (inactive) in the experiment with CAKI-1; 2.92 µM (inactive) in the experiment with SF-539; 1.83 µM (inactive) in the experiment on RPMI-8226; 6.82 µM (inactive) in the experiment with SN12C; 19.7 µM (inactive) in the experiment with SK-MEL-28; 2.9 µM (inactive) with M14. For the same molecule, the GI50 in the experiment with UO-31 is 4.35 µM (inactive); with LOX IMVI, 0.565 µM (active); in the experiment on HCC 2998, 3.1 µM (inactive); in the experiment on HT-29, 3.24 µM (inactive); in the experiment on Hs-578T, 5.48 µM (inactive); with HOP-92, 15.8 µM (inactive). For the same molecule, the GI50 was 1.58 µM (inactive) in the experiment on Malme-3M; 1.95 µM (inactive) in the experiment with MCF7; 6.64 µM (inactive) in the experiment on COLO 205; 0.653 µM (active) in the experiment on SK-MEL-5; 26.9 µM (inactive) with SK-OV-3; 5.71 µM (inactive) in the experiment on T47D. The GI50 in the experiment on OVCAR-5 was 12.5 µM (inactive); in the experiment with K562 it was 3.37 µM (inactive).
In the case of `CCC/C(Cl)=N\OC(=O)Nc1ccc(OC(F)(F)F)cc1`, the GI50 in the experiment on CAKI-1 is 1.66 µM (inactive); in the experiment with SF-539, 16.7 µM (inactive); in the experiment on RPMI-8226 it was 2.11 µM (inactive); with SN12C it was 8.57 µM (inactive); in the experiment with SK-MEL-28, 19.6 µM (inactive); with M14, 6.52 µM (inactive). Moreover, the GI50 in the experiment on UO-31 is 8.53 µM (inactive); in the experiment on LOX IMVI, 2.72 µM (inactive); in the experiment with HCC 2998, 19.5 µM (inactive); with HT-29, 18.2 µM (inactive); with Hs-578T, 28.1 µM (inactive); in the experiment with HOP-92, 2.22 µM (inactive). Further, the GI50 with Malme-3M is 1.68 µM (inactive); with MCF7, 8.26 µM (inactive); in the experiment on COLO 205, 1.82 µM (inactive); in the experiment with SK-MEL-5, 5.4 µM (inactive); in the experiment on SK-OV-3 it was 18.5 µM (inactive); in the experiment on T47D it was 2.79 µM (inactive). Moreover, the GI50 in the experiment with OVCAR-5 is 19.6 µM (inactive); with K562, 2.42 µM (inactive).
As for `Cc1ccc(S(=O)(=O)N/N=C/C2(c3ccccc3)c3ccccc3-c3ccccc32)cc1`, the GI50 with CAKI-1 is 12.6 µM (inactive); in the experiment on SF-539, 15.8 µM (inactive); in the experiment on RPMI-8226 it was 7.45 µM (inactive); with SN12C it was 11.7 µM (inactive); in the experiment on SK-MEL-28, 14.8 µM (inactive); with M14 it was 10.9 µM (inactive). Also, the GI50 in the experiment on UO-31 is 5.82 µM (inactive); in the experiment on LOX IMVI, 12.7 µM (inactive); in the experiment on HCC 2998, 13.3 µM (inactive); in the experiment with HT-29, 12.5 µM (inactive); with Hs-578T it was 14.3 µM (inactive); in the experiment on HOP-92, 12.6 µM (inactive). In addition, the GI50 was 5.42 µM (inactive) with Malme-3M; 6.98 µM (inactive) in the experiment on MCF7; 3.62 µM (inactive) in the experiment with COLO 205; 11.6 µM (inactive) in the experiment with SK-MEL-5; 15.4 µM (inactive) with SK-OV-3; 2.09 µM (inactive) in the experiment with T47D. For the same molecule, the figures for the GI50 in the experiment with OVCAR-5 and with K562 were 12.4 µM (inactive) and 4.56 µM (inactive), respectively.
For `[N-]=[N+]=Nc1c([N+](=O)[O-])c(Cl)nc2ccccc12`, the GI50 in the experiment on CAKI-1 was 0.971 µM (active); in the experiment on SF-539, 3.92 µM (inactive); in the experiment on RPMI-8226 it was 1.77 µM (inactive); in the experiment with SN12C, 2.23 µM (inactive); in the experiment with SK-MEL-28, 2.48 µM (inactive); in the experiment on M14, 1.44 µM (inactive). For the same molecule, the GI50 with UO-31 is 0.632 µM (active); in the experiment on LOX IMVI, 1.59 µM (inactive); in the experiment on HCC 2998 it was 1.98 µM (inactive); in the experiment on HT-29, 2.18 µM (inactive); with Hs-578T it was 3.12 µM (inactive); in the experiment on HOP-92, 1.95 µM (inactive). The GI50 was 1.69 µM (inactive) with Malme-3M; 1.54 µM (inactive) in the experiment on MCF7; 1.74 µM (inactive) in the experiment with COLO 205; 8.99 µM (inactive) with SK-MEL-5; 14.5 µM (inactive) in the experiment with SK-OV-3; 2.07 µM (inactive) with T47D. The GI50 is 2.44 µM (inactive) in the experiment with OVCAR-5 and 0.463 µM (active) with K562.
Turning to `CCOc1ccc(NCC2CC/C(=C\c3ccc(O)cc3)C2=O)cc1` (stereo not given), the GI50 was 17.1 µM (inactive) in the experiment on CAKI-1; 19.1 µM (inactive) in the experiment with SF-539; 4.02 µM (inactive) with RPMI-8226; 18.5 µM (inactive) with SN12C; 15.5 µM (inactive) in the experiment with SK-MEL-28; 18.1 µM (inactive) with M14. In addition, the GI50 in the experiment on UO-31 was 19.4 µM (inactive); in the experiment on LOX IMVI, 12.2 µM (inactive); in the experiment on HCC 2998, 18.1 µM (inactive); in the experiment on HT-29, 15.6 µM (inactive); in the experiment with Hs-578T, 28.8 µM (inactive); in the experiment on HOP-92, 15.2 µM (inactive). For the same molecule, the GI50 was 14.9 µM (inactive) with Malme-3M; 3.61 µM (inactive) in the experiment on MCF7; 13.6 µM (inactive) in the experiment with COLO 205; 19.1 µM (inactive) in the experiment with SK-MEL-5; > 44.7 µM (inactive) in the experiment with SK-OV-3; 19 µM (inactive) in the experiment with T47D. The GI50 in the experiment on OVCAR-5 is 15.6 µM (inactive); in the experiment on K562 it was 3.89 µM (inactive).
As for `N#CC12CC(C=O)=C(N)C1(C#N)CC(C=O)=C2N` (stereo not given), the GI50 is > 100 µM (inactive) in the experiment with CAKI-1; 81.8 µM (inactive) in the experiment with SF-539; 52.6 µM (inactive) in the experiment with RPMI-8226; 74.6 µM (inactive) in the experiment with SN12C; 38.5 µM (inactive) in the experiment on SK-MEL-28; 35.9 µM (inactive) in the experiment on M14. Further, the GI50 was 70.1 µM (inactive) in the experiment on UO-31; 34.4 µM (inactive) with LOX IMVI; 26.5 µM (inactive) in the experiment with HCC 2998; > 100 µM (inactive) with HT-29; 34 µM (inactive) in the experiment on Hs-578T; 32.5 µM (inactive) with HOP-92. Besides, the GI50 in the experiment on Malme-3M was 50.8 µM (inactive); in the experiment with MCF7 it was 58.9 µM (inactive); in the experiment with COLO 205 it was > 100 µM (inactive); in the experiment with SK-MEL-5 it was 20.8 µM (inactive); in the experiment with SK-OV-3, > 100 µM (inactive); with T47D it was 37.8 µM (inactive). In addition, the GI50 in the experiment with OVCAR-5 is > 100 µM (inactive); in the experiment on K562, 45.9 µM (inactive).
Consider `CC(C)(C)c1ccc(S(=O)(=O)N2C(c3cccc(C4CC[C@@H](C(=O)O)N4S(=O)(=O)c4ccc(C(C)(C)C)cc4)c3)CC[C@H]2C(=O)O)cc1` (stereo not given in full), for which the GI50 with CAKI-1 was 42.5 µM (inactive); with SF-539, 87.3 µM (inactive); in the experiment on RPMI-8226 it was 34.5 µM (inactive); in the experiment with SN12C, 47.3 µM (inactive); in the experiment on SK-MEL-28 it was > 100 µM (inactive); with M14 it was 54.1 µM (inactive). The GI50 is 33.5 µM (inactive) in the experiment on UO-31; 79.4 µM (inactive) with LOX IMVI; 47.4 µM (inactive) with HCC 2998; 47.8 µM (inactive) in the experiment on HT-29; 47 µM (inactive) in the experiment with Hs-578T; 58.1 µM (inactive) with HOP-92. Besides, the GI50 in the experiment on Malme-3M is 87.1 µM (inactive); in the experiment on MCF7, 44 µM (inactive); in the experiment on COLO 205, 34 µM (inactive); in the experiment with SK-MEL-5 it was 57.7 µM (inactive); in the experiment with SK-OV-3, > 100 µM (inactive); in the experiment with T47D, 29.9 µM (inactive). The GI50 in the experiment on OVCAR-5 is > 100 µM (inactive); with K562 it was 37.5 µM (inactive).
